Consider one molecule from patent US8759513B2, “Polymorphic form of rifaximin and process for its preparation” (Sequent Scientific Limited, priority 2011, dated 2014).

A short description of this data set: Stability of amorphous rifaximin on storage, followed by PXRD spectroscopy. The note with it: as indicated by the PXRD spectroscopy. Type of data set: physicochemical.

As to `CO[C@H]1/C=C/O[C@@]2(C)Oc3c(C)c(O)c4c(O)c(c5c(nc6cc(C)ccn65)c4c3C2=O)NC(=O)/C(C)=C\C=C\[C@H](C)[C@H](O)[C@@H](C)[C@@H](O)[C@@H](C)[C@H](OC(C)=O)[C@@H]1C` [amorphous rifaximin, (2S,16Z,18E,20S,21S,22R,23R,24R,25S,26S,27S,28E)-5,6,21,23,25-pentahydroxy-27-methoxy-2,4,11,16,20,22,24,26-octamethyl-2,7-(epoxypentadeca-[1,11,13]trienimino)benzofuro[4,5-e]pyrido[1,2-α]-benzimidazole-1,15(2H)-dione, 25-acetate], the “effect of external parameters such as ambient humidity” value (ambient humidity) is reported as “unaffected”. The “chemical and polymorphic stability on storage” value (on storage) was “very stable chemically and polymorphically on storage”.
